The text below walks through data of ChEMBL document CHEMBL3393009 (J Med Chem, 2015).

Structures are written as SMILES. pIC50: −log10 of the molar value.

Data set [1] addresses T1, Serine/threonine-protein kinase 3 (Homo sapiens, UniProt Q13188).
T1 sequence (Q13188 whole entry): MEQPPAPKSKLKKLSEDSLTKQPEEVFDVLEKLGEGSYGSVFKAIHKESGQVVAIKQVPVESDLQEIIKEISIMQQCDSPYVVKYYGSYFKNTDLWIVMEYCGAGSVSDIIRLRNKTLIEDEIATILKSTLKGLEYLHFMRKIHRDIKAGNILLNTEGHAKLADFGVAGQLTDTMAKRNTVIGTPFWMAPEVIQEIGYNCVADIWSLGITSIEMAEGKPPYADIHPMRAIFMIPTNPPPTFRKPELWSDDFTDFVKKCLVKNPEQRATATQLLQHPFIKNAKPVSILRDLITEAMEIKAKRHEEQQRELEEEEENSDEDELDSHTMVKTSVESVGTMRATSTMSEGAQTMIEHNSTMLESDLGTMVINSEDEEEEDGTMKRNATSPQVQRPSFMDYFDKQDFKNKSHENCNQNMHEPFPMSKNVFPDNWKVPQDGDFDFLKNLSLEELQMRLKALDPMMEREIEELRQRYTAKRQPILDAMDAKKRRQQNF
Put plainly: Inhibition of human recombinant MST2 using Ser/Thr peptide 7 substrate after 45 mins by Z-Lyte assay.

Data set [2] in a line: Oral bioavailability in rat at 5 mg/kg. It counts as ADME, organism-based. Conditions: in vivo.
Data set [3] is described as follows: Tmax in dog at 5 mg/kg, po. The class given is ADME, organism-based, Canis lupus familiaris. On the set-up: dose 5 mg/kg, route oral. Conditions: in vivo.

As a reminder, the pIC50 is −log10 of the IC50, conventionally taken in molar units. For orientation: bioavailability means dose-corrected exposure relative to a reference, in per cent. Lower therefore signals little systemic uptake. One may read the Tmax as the time from dosing to the highest level.

`N#Cc1cccc(-c2c[nH]c3ncnc(N4CCOCC4)c23)c1`: the pIC50 in data set [1] was 7.66. Moreover, the bioavailability in data set [2] was found to be 41%. Also, in data set [3], the Tmax stood at 22.8 min.
